Source: publication PMC6572064, “Discovery of 2-(1-(3-(4-Chloroxyphenyl)-3-oxo- propyl)pyrrolidine-3-yl)-1H-benzo[d]imidazole-4-carboxamide: A Potent Poly(ADP-ribose) Polymerase (PARP) Inhibitor for Treatment of Cancer” (Molecules, 2019)
Like-named read-outs stand apart in the source and are kept apart here.

Columns and labels:
PARP-1 = target: T1, PARP-1 (Homo sapiens, UniProt P09874); experiment: PARP-1 inhibition assay (PARP-1 Chemiluminescent Assay Kit, BPS Bioscience); format: biochemical
T1 construct: purchased BPS Bioscience 80569
T1 sequence (P09874 whole entry): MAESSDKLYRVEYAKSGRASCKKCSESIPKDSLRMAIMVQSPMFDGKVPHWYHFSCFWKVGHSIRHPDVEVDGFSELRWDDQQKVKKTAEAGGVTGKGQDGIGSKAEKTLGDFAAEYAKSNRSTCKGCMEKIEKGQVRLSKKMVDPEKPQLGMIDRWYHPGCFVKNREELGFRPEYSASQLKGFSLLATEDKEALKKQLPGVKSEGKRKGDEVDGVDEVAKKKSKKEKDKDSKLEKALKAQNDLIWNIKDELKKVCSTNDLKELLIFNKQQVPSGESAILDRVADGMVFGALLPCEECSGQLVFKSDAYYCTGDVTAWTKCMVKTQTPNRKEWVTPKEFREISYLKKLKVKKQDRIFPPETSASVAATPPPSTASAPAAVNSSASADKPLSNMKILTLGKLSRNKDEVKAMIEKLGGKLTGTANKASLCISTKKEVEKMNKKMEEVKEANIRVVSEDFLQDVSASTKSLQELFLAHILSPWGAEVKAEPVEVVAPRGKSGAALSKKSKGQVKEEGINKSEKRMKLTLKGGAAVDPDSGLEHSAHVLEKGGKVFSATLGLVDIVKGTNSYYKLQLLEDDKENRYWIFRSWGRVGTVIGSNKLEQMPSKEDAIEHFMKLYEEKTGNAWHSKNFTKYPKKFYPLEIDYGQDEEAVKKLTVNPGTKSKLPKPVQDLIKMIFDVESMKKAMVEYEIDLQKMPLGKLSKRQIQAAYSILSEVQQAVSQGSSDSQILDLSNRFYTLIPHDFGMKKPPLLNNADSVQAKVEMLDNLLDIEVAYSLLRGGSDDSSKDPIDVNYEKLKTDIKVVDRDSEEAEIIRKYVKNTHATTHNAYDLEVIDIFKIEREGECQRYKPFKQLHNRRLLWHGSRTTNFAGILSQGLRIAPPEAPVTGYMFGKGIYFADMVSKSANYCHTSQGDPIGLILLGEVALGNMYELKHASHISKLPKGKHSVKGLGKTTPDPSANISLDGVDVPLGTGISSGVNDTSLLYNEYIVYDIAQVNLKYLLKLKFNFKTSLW
Description: (§1) The PARP-1 and PARP-2 inhibition assays were performed in outsourcing, by a CRO company, Shanghai Medicilon Inc. (Shanghai, China). […] Briefly, PARP-1 or PARP-2 biotinylated substrate was incubated with compounds or solvent control at varying concentrations and an assay buffer containing the PARP-1 or PARP-2 enzyme.

[1] = system: CAPAN-1 (a BRCA-2-mutated pancreatic cancer cell line); experiment: Cell proliferation assay, three-day, CellTiter-Glo, CAPAN-1; format: cell-based; details: for IC50 / inhibition at 0.00508 µM / inhibition at 0.0152 µM / inhibition at 0.0457 µM / inhibition at […] / inhibition at 0.41 µM / inhibition at 1.23 µM / inhibition at 3.7 µM / inhibition at 11.11 µM / inhibition at 33.33 µM / inhibition at 100 µM: Homo sapiens; for IC50: CAPAN-1, read-out: CAPAN-1 IC50; for inhibition at 0.00508 µM: CAPAN-1, Conc. 0.00508 uM; for inhibition at 0.0152 µM: CAPAN-1, Conc. 0.0152 uM; for inhibition at 0.0457 µM: CAPAN-1, Conc. 0.0457 uM; for inhibition at […]: CAPAN-1, Conc. 0.14 uM; for inhibition at 0.41 µM: CAPAN-1, Conc. 0.41 uM; for inhibition at 1.23 µM: CAPAN-1, Conc. 1.23 uM; for inhibition at 3.7 µM: CAPAN-1, Conc. 3.70 uM; for inhibition at 11.11 µM: CAPAN-1, Conc. 11.11 uM; for inhibition at 33.33 µM: CAPAN-1, Conc. 33.33 uM; for inhibition at 100 µM: CAPAN-1, Conc. 100.00 uM
In short: (§2)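 Cells seeded overnight in 384-well plates, then exposed to compounds (DMSO stock diluted in medium) for 72 h at 37 °C, 5% CO2. Viability read as CellTiter-Glo luminescence after 60 min at room temperature.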

[2] = system: MDA-MB-436 (a BRCA-1-mutated breast cancer cell line); experiment: Cell proliferation assay, three-day, CellTiter-Glo, MDA-MB-436; format: cell-based; details: Homo sapiens; for inhibition at 0.00508 µM: MDA-MB-436, MDA-MB-436, Conc. 0.00508 uM; for inhibition at 0.0152 µM: MDA-MB-436, MDA-MB-436, Conc. 0.0152 uM; for inhibition at 0.0457 µM: MDA-MB-436, MDA-MB-436, Conc. 0.0457 uM; for inhibition at 0.41 µM: MDA-MB-436, MDA-MB-436, Conc. 0.41 uM; for inhibition at 1.23 µM: MDA-MB-436, MDA-MB-436, Conc. 1.23 uM; for inhibition at 3.7 µM: MDA-MB-436, MDA-MB-436, Conc. 3.70 uM; for inhibition at 11.11 µM: MDA-MB-436, MDA-MB-436, Conc. 11.11 uM; for inhibition at 33.33 µM: MDA-MB-436, MDA-MB-436, Conc. 33.33 uM; for inhibition at 100 µM: MDA-MB-436, MDA-MB-436, Conc. 100.00 uM; for IC50: MDA-MB-436, 72 h, CellTiter-Glo, read-out: MDA-MB-436 IC50
In short: as §2

PARP-2 = target: T2, PARP-2 (Homo sapiens, UniProt Q9UGN5); experiment: PARP-2 inhibition assay (PARP-2 Chemiluminescent Assay Kit, BPS Bioscience); format: biochemical
T2 construct: purchased BPS Bioscience 80552
T2 sequence (Q9UGN5 whole entry): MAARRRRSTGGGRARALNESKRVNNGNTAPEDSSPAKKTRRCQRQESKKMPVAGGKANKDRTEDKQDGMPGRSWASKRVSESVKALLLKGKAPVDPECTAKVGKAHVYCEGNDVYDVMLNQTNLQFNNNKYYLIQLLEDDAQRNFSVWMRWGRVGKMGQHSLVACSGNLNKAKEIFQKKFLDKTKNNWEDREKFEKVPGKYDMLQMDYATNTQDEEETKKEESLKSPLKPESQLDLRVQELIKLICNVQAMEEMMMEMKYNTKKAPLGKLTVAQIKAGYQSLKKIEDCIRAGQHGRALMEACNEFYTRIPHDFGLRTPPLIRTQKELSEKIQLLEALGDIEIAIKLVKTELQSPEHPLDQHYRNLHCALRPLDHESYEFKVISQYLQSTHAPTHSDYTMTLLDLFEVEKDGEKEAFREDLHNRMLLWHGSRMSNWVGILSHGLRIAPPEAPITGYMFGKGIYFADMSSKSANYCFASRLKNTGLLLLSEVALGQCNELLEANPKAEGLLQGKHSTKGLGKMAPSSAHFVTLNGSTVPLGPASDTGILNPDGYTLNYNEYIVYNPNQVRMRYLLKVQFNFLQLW
Description: as §1

For NC(=O)c1cccc2[nH]c(C3CCN(CCNC(=O)c4ccccc4)C3)nc12 (stereo not drawn) [Compound 5co, 2-(1-(2-Benzamidoethyl)pyrrolidin-3-yl)-1H-benzo[d]imidazole-4-carboxamide], the inhibition at 0.01 µM (PARP-1; 10 nM compound, supplement sheet, read-out: 10 nM inhibition% PAPR-1) was 38.4%, the inhibition at 0.01 µM (PARP-1; 10 nM compound, read-out: PARP-1 Inhibition % (10 nM)) was 38.4% and the IC50 (PARP-1; read-out: PARP-1 IC50) was 11.1 nM. For the same compound, the IC50 ([1]; 72 h, CellTiter-Glo) was over 100 µM, the inhibition at 0.00508 µM ([1]; replicate 1, read-out: Inh % 1) was -4.9% and the inhibition at 0.00508 µM ([1]; replicate 2, read-out: Inh % 2) was -7.9%. It also gave an inhibition at 0.0152 µM ([1]; replicate 1, read-out: Inh % 1) of 7.4%, an inhibition at 0.0152 µM ([1]; replicate 2, read-out: Inh % 2) of -1.7% and an inhibition at 0.0457 µM ([1]; replicate 1, read-out: Inh % 1) of 10.8%. For the same compound, the inhibition at 0.0457 µM ([1]; replicate 2, read-out: Inh % 2) was 10.6%, the inhibition at […] ([1]; replicate 1, read-out: Inh % 1) was 5.7% and the inhibition at […] ([1]; replicate 2, read-out: Inh % 2) was 0.8%. It also gave an inhibition at 0.41 µM ([1]; replicate 1, read-out: Inh % 1) of 7.1%, an inhibition at 0.41 µM ([1]; replicate 2, read-out: Inh % 2) of 6.9% and an inhibition at 1.23 µM ([1]; replicate 1, read-out: Inh % 1) of 9.2%. It also gave an inhibition at 1.23 µM ([1]; replicate 2, read-out: Inh % 2) of 5%, an inhibition at 3.7 µM ([1]; replicate 1, read-out: Inh % 1) of 25% and an inhibition at 3.7 µM ([1]; replicate 2, read-out: Inh % 2) of 11.1%. For the same compound, the inhibition at 11.11 µM ([1]; replicate 1, read-out: Inh % 1) was 17.9%, the inhibition at 11.11 µM ([1]; replicate 2, read-out: Inh % 2) was -1.4% and the inhibition at 33.33 µM ([1]; replicate 1, read-out: Inh % 1) was 16%. It also gave an inhibition at 33.33 µM ([1]; replicate 2, read-out: Inh % 2) of 13.7%, an inhibition at 100 µM ([1]; replicate 1, read-out: Inh % 1) of 29.2% and an inhibition at 100 µM ([1]; replicate 2, read-out: Inh % 2) of 25.9%. It also gave an inhibition at 0.00508 µM ([2]; replicate 1, read-out: Inh % 1) of 0.116%, an inhibition at 0.00508 µM ([2]; replicate 2, read-out: Inh % 2) of -6.8% and an inhibition at 0.0152 µM ([2]; replicate 1, read-out: Inh % 1) of 3.3%. It also gave an inhibition at 0.0152 µM ([2]; replicate 2, read-out: Inh % 2) of -2.8%, an inhibition at 0.0457 µM ([2]; replicate 1, read-out: Inh % 1) of -7.2% and an inhibition at 0.0457 µM ([2]; replicate 2, read-out: Inh % 2) of -12.8%. The inhibition at 0.41 µM ([2]; replicate 1, read-out: Inh % 1) was -3.1%, the inhibition at 0.41 µM ([2]; replicate 2, read-out: Inh % 2) was -1.7% and the inhibition at 1.23 µM ([2]; replicate 1, read-out: Inh % 1) was 5.2%. For the same compound, the inhibition at 1.23 µM ([2]; replicate 2, read-out: Inh % 2) was -9.2%, the inhibition at 3.7 µM ([2]; replicate 1, read-out: Inh % 1) was -2% and the inhibition at 3.7 µM ([2]; replicate 2, read-out: Inh % 2) was -0.8%. The inhibition at 11.11 µM ([2]; replicate 1, read-out: Inh % 1) was 2.4%, the inhibition at 11.11 µM ([2]; replicate 2, read-out: Inh % 2) was -2.7% and the inhibition at 33.33 µM ([2]; replicate 1, read-out: Inh % 1) was 15.5%. It also gave an inhibition at 33.33 µM ([2]; replicate 2, read-out: Inh % 2) of 10.6%, an inhibition at 100 µM ([2]; replicate 1, read-out: Inh % 1) of 25.7% and an inhibition at 100 µM ([2]; replicate 2, read-out: Inh % 2) of 18.3%. The IC50 [2] was over 100 µM, the inhibition at 0.01 µM (PARP-2; 10 nM compound, supplement sheet, read-out: 10 nM inhibition% PAPR-2) was 66.2% and the inhibition at 0.01 µM (PARP-2; 10 nM compound, read-out: PARP-2 Inhibition % (10 nM)) was 66.2%. It also gave an IC50 (PARP-2; read-out: PARP-2 IC50) of 5.7 nM and an IC50 (PARP-2; supplement sheet, read-out: IC50 PAPR-2) of 5.67 nM.
In the case of C[C@]1(c2nc3c(C(N)=O)cccc3[nH]2)CCCN1 [pc1, Veliparib, reference compound], the inhibition at 0.01 µM (PARP-1; read-out: 10 nM inhibition% PAPR-1) is reported as 54.3%, the inhibition at 0.01 µM (PARP-1; read-out: PARP-1 Inhibition % (10 nM)) is reported as 63.7% and the “CAPAN-1 IC50 (μM)” value ([1]; 72 h, CellTiter-Glo) is reported as “low potency”. It also gave a LogIC50 ([1]; CAPAN-1, curve-fit output, concentration axis Log (uM)) of 2.067, an IC50 ([1]; 72 h, CellTiter-Glo) of over 100 µM and an inhibition at 0.00508 µM ([1]; replicate 1, read-out: Inh % 1) of -10.6%. The inhibition at 0.00508 µM ([1]; replicate 2, read-out: Inh % 2) was 3.8%, the inhibition at 0.0152 µM ([1]; replicate 1, read-out: Inh % 1) was -2.1% and the inhibition at 0.0152 µM ([1]; replicate 2, read-out: Inh % 2) was -6.9%. The inhibition at 0.0457 µM ([1]; replicate 1, read-out: Inh % 1) was -0.346%, the inhibition at 0.0457 µM ([1]; replicate 2, read-out: Inh % 2) was 3% and the inhibition at […] ([1]; replicate 1, read-out: Inh % 1) was 9.5%. For the same compound, the inhibition at […] ([1]; replicate 2, read-out: Inh % 2) was 7.1%, the inhibition at 0.41 µM ([1]; replicate 1, read-out: Inh % 1) was 7.8% and the inhibition at 0.41 µM ([1]; replicate 2, read-out: Inh % 2) was -1.8%. The inhibition at 1.23 µM ([1]; replicate 1, read-out: Inh % 1) was -10.7%, the inhibition at 1.23 µM ([1]; replicate 2, read-out: Inh % 2) was -7.2% and the inhibition at 3.7 µM ([1]; replicate 1, read-out: Inh % 1) was -17.8%. For the same compound, the inhibition at 3.7 µM ([1]; replicate 2, read-out: Inh % 2) was -16.7%, the inhibition at 11.11 µM ([1]; replicate 1, read-out: Inh % 1) was 5% and the inhibition at 11.11 µM ([1]; replicate 2, read-out: Inh % 2) was 7.2%. For the same compound, the inhibition at 33.33 µM ([1]; replicate 1, read-out: Inh % 1) was 12.5%, the inhibition at 33.33 µM ([1]; replicate 2, read-out: Inh % 2) was 11.9% and the inhibition at 100 µM ([1]; replicate 1, read-out: Inh % 1) was 43.2%. The inhibition at 100 µM ([1]; replicate 2, read-out: Inh % 2) was 42.4%, the inhibition at 0.00508 µM ([2]; replicate 1, read-out: Inh % 1) was 0.064% and the inhibition at 0.00508 µM ([2]; replicate 2, read-out: Inh % 2) was -7.5%. It also gave an inhibition at 0.0152 µM ([2]; replicate 1, read-out: Inh % 1) of -2.6%, an inhibition at 0.0152 µM ([2]; replicate 2, read-out: Inh % 2) of -6.6% and an inhibition at 0.0457 µM ([2]; replicate 1, read-out: Inh % 1) of -7.5%. It also gave an inhibition at 0.0457 µM ([2]; replicate 2, read-out: Inh % 2) of -6.4%, an inhibition at 0.41 µM ([2]; replicate 1, read-out: Inh % 1) of -3.2% and an inhibition at 0.41 µM ([2]; replicate 2, read-out: Inh % 2) of -9.9%. The inhibition at 1.23 µM ([2]; replicate 1, read-out: Inh % 1) was -5.4%, the inhibition at 1.23 µM ([2]; replicate 2, read-out: Inh % 2) was -2.1% and the inhibition at 3.7 µM ([2]; replicate 1, read-out: Inh % 1) was -2.1%. For the same compound, the inhibition at 3.7 µM ([2]; replicate 2, read-out: Inh % 2) was 2.6%, the inhibition at 11.11 µM ([2]; replicate 1, read-out: Inh % 1) was 3.2% and the inhibition at 11.11 µM ([2]; replicate 2, read-out: Inh % 2) was 2.2%. It also gave an inhibition at 33.33 µM ([2]; replicate 1, read-out: Inh % 1) of 11.6%, an inhibition at 33.33 µM ([2]; replicate 2, read-out: Inh % 2) of 7.4% and an inhibition at 100 µM ([2]; replicate 1, read-out: Inh % 1) of 34.3%. For the same compound, the inhibition at 100 µM ([2]; replicate 2, read-out: Inh % 2) was 20.3%, the IC50 [2] was over 100 µM and the inhibition at 0.01 µM (PARP-2; read-out: 10 nM inhibition% PAPR-2) was 78.3%. It also gave an inhibition at 0.01 µM (PARP-2; read-out: PARP-2 Inhibition % (10 nM)) of 78.3%.
